This test concerns kk mice. Nature of the test: Hypoglycemic action (blood sugar level decreasing ratio after 4 days of oral administration). The following applies: 30 mg/day, daily for 4 days, in 0.5% methyl cellulose, six male kk mice per group, blood sampled before and on fifth day, *** = p<0.001. The test is classed as in vivo. The method, then: Male kk mice of 4 to 5 w were purchased from CLEA Japan Inc. These animals were separately reared with a high calorie food (CMF, manufactured by Oriental Yeast), and the animals of which the body weight was more than 40 g were used in the test.
Measurement of the blood sugar level was carried out by collecting a 10 μl portion of blood from a tail vein, removing protein from the collected sample by its treatment with 100 μl of 0.33N perchloric acid, and after centrifugation, measuring glucose in the resulting supernatant by the glucose oxidase method. Six animals having a blood sugar level of more than 200 mg/dl were used as one group in the test.
Each drug was suspended in 0.5% methyl cellulose and orally administered daily for 4 days. Blood samples were collected before and on the fifth day of the drug administration from the tail vein. Blood sugar level was determined with the aforementioned method.
The hypoglycemic activity was expressed as the blood sugar level decreasing ratio to the pre-administration level and statistically evaluated as a significant threshold value of p=0.05.

As for `O=c1[nH]c(=O)n(Cc2ccc(Oc3cccc(Oc4ccc(Cn5oc(=O)[nH]c5=O)cc4)c3)cc2)o1` [Example 6, 1,3-Bis[4-[(3,5-dioxo-1,2,4-oxadiazolidin-2-yl)methyl]phenoxy]benzene], the “blood sugar level decreasing ratio to the pre-administration level” value is listed as 53%.
